Reference: patent US12662478B2, “ATF6 modulators and uses thereof” (Altos Labs, Inc., priority 2019, dated 2026)

Molecular target: T1, ATF6 (Homo sapiens, UniProt P18850)
T1 construct: endogenous in cells; host or cells: U2-OS (ATCC HTB-96) stably transduced with the Cignal Lenti ATF6 luc reporter (Qiagen #CLS-6031L)
T1 sequence (P18850 1-670): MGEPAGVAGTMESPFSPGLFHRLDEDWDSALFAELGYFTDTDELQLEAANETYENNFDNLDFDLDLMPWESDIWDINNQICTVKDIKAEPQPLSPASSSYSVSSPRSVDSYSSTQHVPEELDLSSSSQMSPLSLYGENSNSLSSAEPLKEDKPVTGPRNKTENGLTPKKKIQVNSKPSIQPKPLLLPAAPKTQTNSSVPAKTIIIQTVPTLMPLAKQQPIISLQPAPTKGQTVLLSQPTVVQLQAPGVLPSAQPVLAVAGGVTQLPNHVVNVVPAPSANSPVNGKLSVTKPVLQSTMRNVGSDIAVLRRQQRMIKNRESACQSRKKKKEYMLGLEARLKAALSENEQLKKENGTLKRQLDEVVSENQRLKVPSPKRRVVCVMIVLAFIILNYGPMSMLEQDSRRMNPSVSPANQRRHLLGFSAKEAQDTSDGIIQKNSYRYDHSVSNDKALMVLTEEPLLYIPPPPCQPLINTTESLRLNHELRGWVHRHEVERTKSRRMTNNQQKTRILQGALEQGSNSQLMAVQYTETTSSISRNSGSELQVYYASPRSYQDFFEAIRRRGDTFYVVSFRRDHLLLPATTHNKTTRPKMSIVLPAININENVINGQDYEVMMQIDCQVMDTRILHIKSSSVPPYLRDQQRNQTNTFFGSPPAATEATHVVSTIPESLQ
Test: ERSE ATF6-luciferase assay in presence of Tg-induced ER stress (U2-OS ATF6 TRE-luciferase reporter cells)
Type: cell-based
Settings: in presence of ER stress (thapsigargin), Tg only = 100%; for ATF6 activity @ 1 μM [%] / activity at 1 µM: 1 μM test compound; for ATF6 activity @ 1 μM [%] / ATF6 activity @ 10 μM [%]: 8 hr; for activity at 10 µM / activity at 1 µM: U2OS, 8 h; for activity at 10 µM / ATF6 activity @ 10 μM [%]: 10 μM test compound
Experimental: To understand how exemplary compounds of the invention modulate the activity of ATF6 in absence or presence of endoplasmic reticulum (ER) stress, a Human bone osteosarcoma (U2-OS)-based TRE-luciferase reporter stable cell line was generated to determine the modulation of transcription of ATF6 target genes.
U2-OS cells were obtained from the American Type Culture Collection (ATCC HTB-96, ATCC Manassas, VA) and were cultured with growing medium containing Dulbecco's Modified Eagle's Medium (DMEM) (Cat. No.: SH30023.02, HyClone) supplemented with fetal bovine serum (FBS) 10% (Cat. No.: 16000044, Gibco) and 1% penicillin-streptomycin antibiotic cocktail (Cat. No.: SV30010, Hyclone).
Cignal Lenti ATF6 luc reporter (Qiagen #CLS-6031L) was used to produce a stable cell line in U2-OS cells (U2-OS ATF6 TRE-luciferase reporter). The lenti ATF6 reporter is a preparation of replication incompetent, VSV-g pseudotyped lentivirus particles expressing the firefly luciferase gene under the control of a minimal (m)CMV promoter and tandem repeats of the ATF6 transcriptional response element (TRE). The number of response elements as well as the intervening sequence between response elements has been experimentally optimized to maximize the signal to noise ratio.
Exemplary compounds of the invention and reference compounds were prepared from powder as 10 mM stock solutions in dimethyl sulfoxide (DMSO; Cat. No. #D2650, Sigma Aldrich) and stored at −80° C. in presence of N2 neutral atmosphere.
For the primary screening, 40,000 U2-OS ATF6 TRE-luciferase reporter cells were plated in poly-D-lysine (Cat. No.: P2636, Sigma) pre-coated white 96-well plates (Thermo Scientific Nunc #136101) with 100 μL of growing medium. Cells were incubated in humidified chambers for 24 hr.
For testing exemplary compounds in presence of ER-stress, cells were pre-treated for 30 min with 50 μL growing medium containing either vehicle (DMSO), 1 or 10 μM test compound. After this pre-incubation, 50 μL of a solution containing 0.2 μM of the ER stress-inducer thapsigargin (Tg) was added to the appropriate wells. The Tg solution also contains vehicle or test compounds at 1 or 10 μM as indicated. The final concentration of DMSO in each well was kept at 0.3%. Plates were incubated for 8 hr in humidified chambers.
After the 8 hr incubation, plates were cooled down to room temperature for 10 min prior to the luciferase assays. Luciferase reactions were performed using Luciferase Assay System (Cat. No.: E4550, Promega). Briefly, each well was washed with 100 μl of PBS 1× and, then, 20 μl of lysis reagent was added into each well. Plates were shaken for 10 min and, then, 50 μl of Luciferase Assay Reagent was added to each well. Luminescence was determined by integration of 1 s with a gain of 110 in a Synergy 4 Microplate reader. All measurements were carried out in triplicate.
The average activity determined from the wells containing vehicle only (DMSO, 0% of ATF6 activity) was used as blank and subtracted from the rest of measurements. The average activity determined from the wells containing Tg only was used as 100% of ATF6 activity. The percentage of modulation of exemplary compounds was calculated by normalizing values to potential maximal activation with Tg.
ATF6 activities of exemplary compounds at 1 and 10 μM in presence Tg-induced ER stress tested in the U2-OS ATF6 TRE-luciferase reporter cells were determined and are shown in Table 2-2 and Table 3-2.

activity at 10 µM (Table 2-2) [%]	activity at 1 µM (Table 2-2) [%]	Structure (SMILES)	ATF6 activity @ 1 μM [%] (Table 2-2)	ATF6 activity @ 10 μM [%] (Table 2-2)	ATF6 activity @ 1 μM [%] (Table 2-3)	ATF6 activity @ 10 μM [%] (Table 2-3)
75 to 100		CC(c1ccc(C(F)(F)F)cc1C(F)(F)F)n1cc(C#Cc2nnc(-c3cnccn3)s2)cn1 (single isomer, unassigned) [Compound 2-21, 2-((1-(1-(2,4-bis(trifluoromethyl)phenyl)ethyl)-1H-pyrazol-4-yl)ethynyl)-5-(pyrazin-2-yl)-1,3,4-thiadiazole]	− (− refers to 75% < % activity < 100% at 1 or 10 μM)			
		CC(c1ccc(C(F)(F)F)cc1C(F)(F)F)n1cc(C#Cc2nnc(-c3cnccn3)s2)cn1 (single isomer, unassigned) [Compound 2-22, 2-((1-(1-(2,4-bis(trifluoromethyl)phenyl)ethyl)-1H-pyrazol-4-yl)ethynyl)-5-(pyrazin-2-yl)-1,3,4-thiadiazole]	−− (−− refers to 50% < % activity < 75% at 1 or 10 μM test compound)	− (− refers to 75% < % activity < 100% at 1 or 10 μM)		
50 to 75		Cc1nn(C(C)c2ccc(C(F)(F)F)cc2C(F)(F)F)cc1C#Cc1nnc(-c2ccccn2)s1 (single isomer, unassigned) [Compound 2-23, 2-((1-(1-(2,4-bis(trifluoromethyl)phenyl)ethyl)-3-methyl-1H-pyrazol-4-yl)ethynyl)-5-(pyridin-2-yl)-1,3,4-thiadiazole]	− (− refers to 75% < % activity < 100% at 1 or 10 μM)			
		Cc1nn(C(C)c2ccc(C(F)(F)F)cc2C(F)(F)F)cc1C#Cc1nnc(-c2ccccn2)s1 (single isomer, unassigned) [Compound 2-24, 2-((1-(1-(2,4-bis(trifluoromethyl)phenyl)ethyl)-3-methyl-1H-pyrazol-4-yl)ethynyl)-5-(pyridin-2-yl)-1,3,4-thiadiazole]	−−− (−−− refers to <50% at 1 or 10 μM test compound)	−−− (−−− refers to <50% at 1 or 10 μM test compound)		
		O=C(Nc1cnn(Cc2ccc(C(F)(F)F)cc2C(F)(F)F)c1)c1cc(-c2ccco2)on1 [Ceapin-A7, reference compound]	−−− (−−− refers to <50% at 1 or 10 μM test compound)	−−− (−−− refers to <50% at 1 or 10 μM test compound)	−−− (−−− refers to <50% at 1 or 10 μM test compound)	−−− (−−− refers to <50% at 1 or 10 μM test compound)
		CC(c1ccc(C(F)(F)F)cc1C(F)(F)F)n1cc(C#Cc2nnc(-c3ccccn3)s2)cn1 (centres unmarked) [Compound 2-1, 2-((1-(1-(2,4-bis(trifluoromethyl)phenyl)ethyl)-1H-pyrazol-4-yl)ethynyl)-5-(pyridin-2-yl)-1,3,4-thiadiazole]	−− (−− refers to 50% < % activity < 75% at 1 or 10 μM test compound)	−−− (−−− refers to <50% at 1 or 10 μM test compound)		
< 50	< 50	CC(c1ccc(C(F)(F)F)cc1C(F)(F)F)n1cc(C#Cc2nnc(-c3ccccn3)s2)cn1 (centres unmarked) [Compound 2-2, 2-((1-(1-(2,4-bis(trifluoromethyl)phenyl)ethyl)-1H-pyrazol-4-yl)ethynyl)-5-(pyridin-2-yl)-1,3,4-thiadiazole]				
75 to 100	50 to 75	FC(F)(F)c1ccc(Cn2cc(C#Cc3nnc(-c4ccccn4)s3)cn2)c(C(F)(F)F)c1 [Compound 2-4, 2-((1-(2,4-bis(trifluoromethyl)benzyl)-1H-pyrazol-4-yl)ethynyl)-5-(pyridin-2-yl)-1,3,4-thiadiazole]				
< 50	100 to 125	CC(c1ccc(C(F)(F)F)cc1C(F)(F)F)n1cc(/C=C/c2nnc(-c3ccccn3)s2)cn1 (centres unmarked) [Compound 2-5, (E)-2-(2-(1-(1-(2,4-bis(trifluoromethyl)phenyl)ethyl)-1H-pyrazol-4-yl)vinyl)-5-(pyridin-2-yl)-1,3,4-thiadiazole]				
	100 to 125	CC(c1ccc(C(F)(F)F)cc1C(F)(F)F)n1cc(/C=C\c2nnc(-c3ccccn3)s2)cn1 (centres unmarked) [Compound 2-6, (Z)-2-(2-(1-(1-(2,4-bis(trifluoromethyl)phenyl)ethyl)-1H-pyrazol-4-yl)vinyl)-5-(pyridin-2-yl)-1,3,4-thiadiazole]		−− (−− refers to 50% < % activity < 75% at 1 or 10 μM test compound)		
		CC(c1ccc(C(F)(F)F)cc1C(F)(F)F)n1cc(/C=C\c2nnc(-c3ccccn3)s2)cn1 (centres unmarked) [Compound 2-7, (Z)-2-(2-(1-(1-(2,4-bis(trifluoromethyl)phenyl)ethyl)-1H-pyrazol-4-yl)vinyl)-5-(pyridin-2-yl)-1,3,4-thiadiazole]	+ (+ refers to 100% < % activity < 125% at 1 or 10 μM)	− (− refers to 75% < % activity < 100% at 1 or 10 μM)		
		CC(c1ccc(C(F)(F)F)cc1C(F)(F)F)n1cc(/C=C\c2nnc(-c3ccccn3)s2)cn1 (centres unmarked) [Compound 2-8, (Z)-2-(2-(1-(1-(2,4-bis(trifluoromethyl)phenyl)ethyl)-1H-pyrazol-4-yl)vinyl)-5-(pyridin-2-yl)-1,3,4-thiadiazole]	+ (+ refers to 100% < % activity < 125% at 1 or 10 μM)	−− (−− refers to 50% < % activity < 75% at 1 or 10 μM test compound)		
< 50	75 to 100	CC(c1ccc(C(F)(F)F)cc1C(F)(F)F)n1cc(CCc2nnc(-c3ccccn3)s2)cn1 (centres unmarked) [Compound 2-9, 2-(2-(1-(1-(2,4-bis(trifluoromethyl)phenyl)ethyl)-1H-pyrazol-4-yl)ethyl)-5-(pyridin-2-yl)-1,3,4-thiadiazole]				
75 to 100	50 to 75	CC(c1ccc(C(F)(F)F)cc1C(F)(F)F)n1cc(C#Cc2nnc(-c3cnccn3)s2)cn1 (centres unmarked) [Compound 2-10, 2-((1-(1-(2,4-bis(trifluoromethyl)phenyl)ethyl)-1H-pyrazol-4-yl)ethynyl)-5-(pyrazin-2-yl)-1,3,4-thiadiazole]				
50 to 75	50 to 75	Cc1nn(C(C)c2ccc(C(F)(F)F)cc2C(F)(F)F)cc1C#Cc1nnc(-c2ccccn2)s1 (centres unmarked) [Compound 2-11, 2-((1-(1-(2,4-bis(trifluoromethyl)phenyl)ethyl)-3-methyl-1H-pyrazol-4-yl)ethynyl)-5-(pyridin-2-yl)-1,3,4-thiadiazole]				
